Broadly, the viability is a read-out of living cells in per cent, often relative to untreated cells.

A short description of the series: in vitro. Particulars: human, hela cells, % viability.

For the compound `CCc1cc(-c2[nH]nc(C)c2Oc2ccc(C(C)C)cc2)c(O)cc1O` [CBK264940], the viability at 28.5 h, 10 µM is 90.7%.

On to `CC/C(=C\c1sc2ccc3ccccc3c2[n+]1CCCS(=O)[O-])SC` [CBK264941], for which the viability at 28.5 h, 10 µM came out at 107%. The same measure for `COC(=O)c1c(C)oc2cc(Br)c(OCC(=O)c3ccc(Cl)cc3)cc12` [CBK264946]: 83.5%.

Regarding `COc1cc(CCN2C(=O)c3cccc4cccc(c34)C2=O)c(S(=O)(=O)N2CCCC2)cc1OC` [CBK264947], the viability at 28.5 h, 10 µM was determined as 102%. For `O=C(Nc1ccccc1C(=O)N1CCN(Cc2ccccc2)CC1)c1ccc(F)cc1` [CBK264948], the viability at 28.5 h, 10 µM is 99.3%.

As to `CCOC(=O)c1c(C(C)(C)C)oc2ccc(OCC(=O)c3ccc(OC)cc3)cc12` [CBK264950], the viability at 28.5 h, 10 µM came out at 123%. In the case of `O=[N+]([O-])c1ccc(N2CCN(S(=O)(=O)Cc3ccccc3)CC2)cc1N1CCN(Cc2ccccc2)CC1` [CBK264951] it was 101%; in that of `Nc1nc(SCC(=O)NCCCO)nc2sc3c(c12)CCC3` [CBK264952], 88.7%. In the case of `O=C1NC2(Nc3ccccc31)C(=O)N(Cc1cccc3ccccc13)c1ccccc12` (centres unmarked) [CBK264954], the viability at 28.5 h, 10 µM worked out at 108%. The same measure for `COc1cc([N+](=O)[O-])ccc1NC(=O)C1CC(Cl)=CCC1C(=O)O` (centres unmarked) [CBK264956]: 88.8%. In the case of `O=C(NCc1ccccn1)C1CCN(S(=O)(=O)c2ccc(Cl)cc2)CC1` [CBK264959] it was 90.2%; in that of `CC(C)(C)C(=O)CSc1nnc(-c2ccccc2)n1Cc1ccccc1` [CBK264960], 108%. The same measure for `CCCCOC(=O)c1c(N)n(CCOC)c2nc3ccccc3nc12` [CBK264961]: 96.9%; for `CCOc1cc(/C=C2/SC(=S)N(c3cccc(C(F)(F)F)c3)C2=O)ccc1OCC(=O)O` [CBK264965]: 106%. As for `CCOc1cc(/C=C2/SC(=S)N(c3cccc(Cl)c3)C2=O)ccc1OCC(=O)O` [CBK264966], the viability at 28.5 h, 10 µM was 94.2%. The same measure for `Cc1ccc(S(=O)(=O)NCCCC(=O)Oc2cc3oc(=O)c4c(c3cc2Cl)CCC4)cc1` [CBK264967]: 86.8%; for `Cc1cc(Br)cc(C)c1NC(=O)CSc1nnc(COc2ccccc2Cl)o1` [CBK264968]: 93%. In the case of `Cc1ccc(S(=O)(=O)N(C)c2c(C)ccc(S(=O)(=O)N(C)CCO)c2C)cc1` [CBK264970] it was 85.5%; in that of `COc1cc(S(=O)(=O)NCc2ccc3c(c2)OCO3)c(OC)cc1Cl` [CBK264972], 97.1%; in that of `O=S(=O)(NCCN1CCOCC1)c1ccc(Cl)c(Cl)c1Cl` [CBK264973], 109%. The same measure for `O=C(/C=C/c1ccco1)Nc1cccc2c(NC(=O)/C=C/c3ccco3)cccc12` [CBK264974]: 99.7%; for `O=C(Cn1cnc2ccccc2c1=O)Oc1cccc(NC2=NS(=O)(=O)c3ccccc32)c1` [CBK264975]: 83.6%.

For `CCOC(=O)c1c(N)n(-c2cccc(C(F)(F)F)c2)c2nc3ccccc3nc12` [CBK264977], the viability at 28.5 h, 10 µM was found to be 95.6%. In the case of `COc1ccc(-c2nc3cc(NC(=O)C(c4ccccc4)c4ccccc4)ccc3o2)cc1` [CBK264980], the viability at 28.5 h, 10 µM worked out at 113%. The same measure for `CCCCC12CN3CCN(CC(C3)/C1=N\N=C1/C3CN4CCN(C3)CC1(CCCC)C4)C2` [CBK264981]: 104%; for `O=C1N=C(Nc2cccc(C(=O)O)c2)S/C1=C/c1cccc(O)c1` [CBK264984]: 92.5%. The same measure for `Cc1cccc(C(=O)NC(=S)Nc2cccc(C(=O)O)c2)c1` [CBK264987]: 121%.

As to `Cc1nc(CC(=O)O)c(-c2ccccc2)s1` [CBK264988], the viability at 28.5 h, 10 µM worked out at 110%. For `O=C(CSc1ccc(Cl)cc1)Nc1cccc(-c2nc3ncccc3o2)c1` [CBK264989], the viability at 28.5 h, 10 µM came out at 105%. The same measure for `Cc1ccc(S(=O)(=O)NCCCN2CCOCC2)c(C)c1C` [CBK264990]: 89.7%; for `CC(=O)Nc1cc(Cl)ccc1OS(=O)(=O)c1ccc(Cl)cc1` [CBK264992]: 90.3%.

In the case of `CC(NC(=O)CSc1nnc(-c2ccc(Cl)cc2)n1-c1ccccc1)c1ccccc1` (centres unmarked) [CBK264993], the viability at 28.5 h, 10 µM amounted to 87%. Turning to `COc1ccc(/C=C(/NC(=O)/C=C/c2ccccc2)C(=O)O)cc1` [CBK264996], the viability at 28.5 h, 10 µM amounted to 94.8%. The same measure for `C=CCN(CC=C)Cc1c(C)nc2ccc(CC)cc2c1O` [CBK264998]: 92.6%; for `CC1(C)Cc2c(sc(NC(=O)C3CC(Cl)=CCC3C(=O)O)c2C#N)CO1` (centres unmarked) [CBK265002]: 97.6%. The same measure for `O=C(COc1ccc([N+](=O)[O-])cc1)Nc1ccc(S(=O)(=O)N2CCCCC2)cc1` [CBK265003]: 119%. In the case of `Cc1cc(C)nc(NC(=O)COc2ccc([N+](=O)[O-])cc2)n1` [CBK265004] it was 101%. Turning to `O=C(CSc1nc[nH]n1)Nc1ccccc1[N+](=O)[O-]` [CBK265005], the viability at 28.5 h, 10 µM turned out to be 100%.

In the case of `CCc1ccc(OCC(=O)Nc2ccc3oc(-c4ccc(F)cc4Cl)nc3c2)cc1` [CBK265010], the viability at 28.5 h, 10 µM worked out at 100%. `O=C(O)c1ccc(CSc2nnc(-c3ccccc3)n2Cc2ccccc2)cc1` [CBK265013]: the viability at 28.5 h, 10 µM amounted to 114%. For `Cc1ccc(S(=O)(=O)Oc2cccc(C(c3c(C)n[nH]c3O)c3c(C)n[nH]c3O)c2)cc1` [CBK265016], the viability at 28.5 h, 10 µM was found to be 95.1%. Consider `CC(=O)c1c(C)[n+]([O-])c2cc(Cl)c(Cl)cc2[n+]1[O-]` [CBK265017], for which the viability at 28.5 h, 10 µM came out at 108%. The same measure for `CC(C)(C)c1ccc(CNC(=O)C2CCCN2S(=O)(=O)c2ccc3ccccc3c2)cc1` (centres unmarked) [CBK265020]: 109%; for `COc1cc(C2SCC(=O)Nc3c2c(-c2ccccc2)nn3-c2ccccc2)cc(OC)c1OC` (centres unmarked) [CBK265025]: 108%. In the case of `NC(=O)COc1cccc(/C=C2/SC(Nc3cccc(C(=O)O)c3)=NC2=O)c1` [CBK265027] it was 104%; in that of `COc1cc(/C=N/N=C(/Nc2ccc(C)cc2)c2nc3ccccc3s2)ccc1O` [CBK265029], 103%; in that of `CCOC(=O)c1cnc2ccc(Br)cc2c1NCc1cccnc1` [CBK265030], 83.5%.

For the compound `Cc1ccc(OCc2nnc(SCC(=O)c3cccs3)n2-c2ccccc2)cc1C` [CBK265033], the viability at 28.5 h, 10 µM was 101%.

Take `CN(C)CCN(CC#Cc1ccccc1)CC#Cc1ccccc1` [CBK265035C]: the viability at 28.5 h, 10 µM worked out at 116%. The same measure for `S=c1n(CN2CCC(c3ccccc3)CC2)nc(Cc2ccccc2)n1-c1ccccc1` [CBK265037]: 95.2%; for `O=[N+]([O-])c1ccc(Sc2nnc(COc3ccccc3)n2-c2ccccc2)nc1` [CBK265041]: 85.8%; for `CCCCOC(=O)c1c(N)n(-c2ccc(C(=O)O)cc2)c2nc3ccccc3nc12` [CBK265046]: 94.6%. Turning to `Cn1c(Sc2ccc(C(=O)O)cc2[N+](=O)[O-])nnc1-c1ccccc1` [CBK265047], the viability at 28.5 h, 10 µM was 103%. In the case of `CCC(=O)NC(c1ccc(C)cc1)c1cc([N+](=O)[O-])c2cccnc2c1O` (centres unmarked) [CBK265048] it was 121%; in that of `COc1ccccc1/C=N/N=C(/Nc1ccc(C)cc1)c1nc2ccccc2s1` [CBK265051], 124%; in that of `S=c1[nH]nc(Cc2cccc3ccccc23)n1-c1ccccc1` [CBK265052], 97.3%.

Consider `N#C/C(=C\c1ccc(-c2cccc(C(=O)O)c2)o1)c1nc2ncc(Br)cc2[nH]1` [CBK265054], for which the viability at 28.5 h, 10 µM amounted to 96.1%.

In the case of `Clc1ccc(SCCN2CCOCC2)cc1` [CBK265055G], the viability at 28.5 h, 10 µM was 98.8%. In the case of `O=C(CN1CCOCC1)Nc1sc2c(c1C(=O)Nc1ccc(Cl)cc1)CCC2` [CBK265056] it was 102%; in that of `C=CCSC1=N/C(=C\c2ccc(C(=O)O)cc2)C(=O)S1` [CBK265057], 95.7%; in that of `Cc1cccc(C(C)(C)C)c1OCCNCCN` [CBK265058G], 118%. Regarding `O=C(NC(=S)Nc1ccc(C(=O)O)c(Cl)c1)c1ccc(-c2ccc(Cl)cc2)o1` [CBK265063], the viability at 28.5 h, 10 µM was found to be 105%. In the case of `COc1ccc(C(=O)O)cc1NC(=S)NC(=O)c1ccc(-c2ccccc2)cc1` [CBK265064] it was 99.5%; in that of `CC(=O)Nc1ccccc1NC(=O)COc1ccc(Br)cc1C` [CBK265072], 103%; in that of `Cc1ncc(CO)c(/C=N/N=C/c2ccc(O)c(O)c2)c1O` [CBK265075], 103%. The same measure for `O=C(CN1CCCCCC1)Nc1sc2c(c1C(=O)Nc1ccc(Br)cc1)CCC2` [CBK265076]: 109%; for `Cc1ccc(S(=O)(=O)N/N=C/C=C/c2ccc(N(C)C)cc2)cc1` [CBK265078]: 99.7%. In the case of `CC(=O)Nc1ccc(NC(=O)c2cc(-c3ccc(Cl)cc3Cl)nc3ccccc23)cc1` [CBK265080] it was 80.8%; in that of `OCCNCCOc1ccc(Cl)cc1Br` [CBK265083G], 116%; in that of `Clc1ccccc1CSc1nnc2c(n1)OC=Nc1ccccc1-2` [CBK265085], 99.1%. On to `O=C(Nc1sc2c(c1C(=O)NCc1ccco1)CCCC2)c1sc2ccccc2c1Cl` [CBK265086], for which the viability at 28.5 h, 10 µM worked out at 92.1%. In the case of `COCCNCCOc1c(Cl)cc(C)cc1Br` [CBK265087G] it was 113%; in that of `Cc1cc(Cl)c(OCCN2CCC(C)CC2)c(Br)c1` [CBK265088G], 78.3%. In the case of `Cc1ccc(NC(=O)c2ccccc2OCC(=O)NC23CC4CC(CC(C4)C2)C3)cc1Cl` [CBK265091] it was 101%. For the compound `COCCCNCCSc1ccc(Cl)cc1` [CBK265093], the viability at 28.5 h, 10 µM was 95%. The same measure for `Cc1cc(Br)ccc1OCC(=O)O/N=C(\N)Cc1ccc([N+](=O)[O-])cc1` [CBK265095]: 99.8%.

With `Cn1c(SCC(=O)Nc2ccccc2[N+](=O)[O-])nc2ccccc2c1=O` [CBK265096], the viability at 28.5 h, 10 µM was found to be 106%.

Values taken from publication PMC12040169 (PLOS Biology, 2025).
